The target in data set [1] is T1, CYP2C19 (Homo sapiens, UniProt P33261).
Data set [2] has as its system CYP3A. The data set can be described thus: Oral contraceptive DDI study. The class given is in vivo, human.
The test system of data set [3] is CYP1A2. The note with it: with abrocitinib 200 mg QD.
In data set [4] the test system is CYP3A. As to the kind of experiment: Midazolam DDI study.
For data set [5], the system named is CYP1A2/2B6/2C19/3A. The data set can be described thus: Reversible inhibition in human liver microsomes. The class given is in vitro ADME. The note with it: HLM.
In data set [6] the target is T1, CYP2C19. Type of data set: in vitro ADME. The conditions noted are these: HLM.
Data set [7] relates to CYP3A4/5. As to the kind of experiment: Time-dependent inhibition. Type of data set: in vitro ADME, human. The conditions noted are these: HLM; for TDI of CYP3A after 30-min preincubation: incubation concentration ≥ 99.5 µM.
The conditions of data set [8]: after administration as tablet; cited from earlier work.
Data set [9] relates to CYP2C19. The note with it: cited from earlier work.
Data set [10] deals with CYP2B6. The conditions noted are these: after multiple doses of abrocitinib 200 mg QD.
Data set [11] relates to pregnane X receptor (PXR) pathway. The data set can be described thus: Induction via the pregnane X receptor pathway. The class given is in vitro ADME. The conditions noted are these: data on file.
Data set [12] is described as follows: Safety. Type of data set: in vivo, human. The conditions noted are these: coadministered with midazolam, caffeine, efavirenz, omeprazole or oral contraceptives; healthy adult participants.
Where [13] appears, read: abrocitinib 200 mg QD with omeprazole 10 mg single dose.
The mark [14] stands for this setting: with multiple doses of abrocitinib vs LN alone.
Setting [15] is: multiple doses of abrocitinib 200 mg QD, Day 7 vs midazolam alone.
Setting [16] is: with abrocitinib 200 mg QD on Day 2 vs midazolam alone.
Where [17] appears, read: after multiple doses of abrocitinib 200 mg QD.

Where two headings read alike, the source gives them in different places.

T1 sequence (P33261 whole entry): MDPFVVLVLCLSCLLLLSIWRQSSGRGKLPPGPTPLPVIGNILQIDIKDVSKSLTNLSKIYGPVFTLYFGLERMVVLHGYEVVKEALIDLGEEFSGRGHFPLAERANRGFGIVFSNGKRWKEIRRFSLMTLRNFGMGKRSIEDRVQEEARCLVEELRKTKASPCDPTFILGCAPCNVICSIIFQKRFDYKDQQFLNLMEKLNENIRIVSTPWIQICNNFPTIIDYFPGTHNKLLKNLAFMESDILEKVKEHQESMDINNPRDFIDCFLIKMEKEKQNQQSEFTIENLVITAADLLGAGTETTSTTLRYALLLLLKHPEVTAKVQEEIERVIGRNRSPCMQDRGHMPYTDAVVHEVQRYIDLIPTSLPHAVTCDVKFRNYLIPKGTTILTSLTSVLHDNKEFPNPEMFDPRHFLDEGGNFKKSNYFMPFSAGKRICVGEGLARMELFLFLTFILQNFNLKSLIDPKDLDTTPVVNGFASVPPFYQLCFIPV

In the case of `COc1ccc2[nH]c([S+]([O-])Cc3ncc(C)c(OC)c3C)nc2c1` (centres unmarked) [Omeprazole, omeprazole], in data set [1] (setting [13]), the “Increase of omeprazole AUCinf” value is reported as “approximately 2.9 fold” and the “Increase of omeprazole Cmax” value is recorded as approximately 2.3 fold. Also, the “Increase of omeprazole Cmax” value in data set [1] (with multiple doses of abrocitinib 200 mg QD) is approximately 134%.

With `C#C[C@]1(O)CC[C@H]2[C@@H]3CCC4=CC(=O)CC[C@@H]4[C@H]3CC[C@@]21CC` [Levonorgestrel, levonorgestrel], in data set [2] (setting [14]), the “Change of adjusted geometric mean AUClast” value is “did not change” and the “Decrease of adjusted geometric mean Cmax” value is “approximately 14%”.

Regarding `Cn1c(=O)c2c(ncn2C)n(C)c1=O` [Caffeine, caffeine], the “Increase of caffeine AUCinf” value in data set [3] is on record as 1.4 fold.

Turning to `Cc1ncc2n1-c1ccc(Cl)cc1C(c1ccccc1F)=NC2` [Midazolam, midazolam], in data set [4] (setting [15]), the “Decrease of adjusted geometric mean AUCinf of midazolam” value was “approximately 7.7%” and the “Decrease of adjusted geometric mean Cmax of midazolam” value was approximately 6.5%. Besides, in data set [4] (setting [16]), the “Decrease of adjusted geometric mean AUCinf of midazolam” value was “approximately 15.7%” and the “Decrease of adjusted geometric mean Cmax of midazolam” value is listed as approximately 13.7%.

For `CN(c1ncnc2[nH]ccc12)[C@H]1C[C@@H](NS(=O)(=O)CCCO)C1` [M1], in data set [5], the “Reversible inhibition of CYP1A2/2B6/2C19/3A” value is “no reversible inhibition”. In [6], the “TDI of CYP2C19 in the absence of NADPH” value was “weak TDI” and the “TDI of CYP2C19 in the presence of NADPH” value was “weak TDIs”. For the same compound, in data set [7], the “TDI of CYP3A in the absence of NADPH” value is recorded as “weak TDI”, the “TDI of CYP3A after 30-min preincubation” value is “weak TDI” and the “TDI of CYP3A in the presence of NADPH” value is “weak TDIs”.

As for `CCCS(=O)(=O)N[C@H]1C[C@@H](N(C)c2ncnc3[nH]ccc23)C1` [Abrocitinib, N-{cis-3-[Methyl(7H-pyrrolo[2,3-d]pyrimidin-4-yl)amino]cyclobutyl}propane-1-sulfo namide], the “Effect of abrocitinib on the pharmacokinetics of OCs” value in data set [2] (setting [17]) is given as “lack of effect”. Also, the “Median Tmax of abrocitinib” value in data set [8] is recorded as not above 1 h. Moreover, the “Effect of abrocitinib on the pharmacokinetics of midazolam” value in data set [4] (setting [17]) is “lack of effect”. Besides, in data set [9], the “Share of abrocitinib metabolism by CYP2C19” value is “approximately 53%”. Besides, in data set [10], the “Effect of abrocitinib on the pharmacokinetics of efavirenz” value is “lack of effect”. Also, the “Induction via the PXR pathway” value in data set [11] was “weak signal”. Besides, in [12], the “Overall safety and tolerability” value is “generally safe and well tolerated”.

For the compound `CC(O)CS(=O)(=O)N[C@H]1C[C@@H](N(C)c2ncnc3[nH]ccc23)C1` (some centres unmarked) [M2], the “Reversible inhibition of CYP1A2/2B6/2C19/3A” value in data set [5] was “no reversible inhibition”. Further, in data set [6], the “TDI of CYP2C19 in the absence of NADPH” value was “weak TDI” and the “TDI of CYP2C19 in the presence of NADPH” value is reported as “weak TDIs”. In addition, in data set [7], the “TDI of CYP3A in the absence of NADPH” value was “weak TDI”, the “TDI of CYP3A after 30-min preincubation” value is “weak TDI” and the “TDI of CYP3A in the presence of NADPH” value is on record as “weak TDIs”.

(Values after publication PMC11052784 (European Journal of Drug Metabolism and Pharmacokinetics, 2024).)
